The data set concerns 5-week-old ICR male mouse. As to the kind of experiment: Acute toxicity No. 1: lethal toxicity test of the compounds, intraperitoneal. It counts as in vivo. Conditions: for dead individuals during the observation period / general condition after the administration / weight: i.p., mice. From the text:
Novel glucosamine derivative [I] according to the present invention was used to perform a lethal toxicity test with respect to mice. The following compounds were used as to-be-tested substances. • ① 6-O-palmitoyl-D-glucosamine methylglycoside • ② 6,6'-di-O-palmitoyl-D-glucosamino-(l→4)-β-D-glucosamine methylglycoside • ③ Stearylamine (Comparative Example)
Each of the above compounds was suspended in a 0.5%-CMC·Na solution to prepare a to-be-tested solution. 1.0 mℓ of each to-be-tested solution was administered intraperitoneally to a 5-week-old ICR male mouse, and a mouse mortality state was observed. Note that 1.0 mℓ of a 0.5%-CMC·Na solution was similarly administered to a solvent control group.

Each structure is given as a SMILES string.

In the case of `CCCCCCCCCCCCCCCC(=O)OC[C@H]1O[C@@H](O[C@H]2[C@H](O)[C@@H](N)C(OC)O[C@@H]2COC(=O)CCCCCCCCCCCCCCC)[C@H](N)[C@@H](O)[C@@H]1O` (stereo partly drawn) [compound ②, 6,6'-di-O-palmitoyl-D-glucosamino-(1→4)-β-D-glucosamine methylglycoside], the “dead individuals during the observation period” value was “no dead individual was found”, the “general condition after the administration” value (shortened to “general condition”) is “no significant change was found” and the weight entry is recorded as “an increase in weight was found as in the control”. Further, under “450 ng/kg i.p.”, the “Total Number of dead individuals” value is recorded as 0/1. The “Number of dead individuals” value (450 ng/kg i.p., 1st day) was 0/1. The “Number of dead individuals” value (450 ng/kg i.p., 2nd day) is given as 0/1. The “Number of dead individuals” value (450 ng/kg i.p., 3rd day) is given as 0/1. Moreover, the “Number of dead individuals” value (450 ng/kg i.p., Day of test) is reported as 0/1. Moreover, under “900 ng/kg i.p.”, the “Total Number of dead individuals” value is recorded as 0/1. Besides, the “Number of dead individuals” value (900 ng/kg i.p., 1st day) is given as 0/1. For the same molecule, where the note is “900 ng/kg i.p., 2nd day”, the “Number of dead individuals” value is 0/1. Also, the “Number of dead individuals” value (900 ng/kg i.p., 3rd day) is given as 0/1. The “Number of dead individuals” value (900 ng/kg i.p., Day of test) was 0/1.

Take `CCCCCCCCCCCCCCCCCCN` [compound ③, Stearylamine, reference compound]: the “general condition” value is recorded as “a decrease in spontaneous motion was found immediately after the administration” and the weight entry is reported as “the weight was gradually decreased to result in death”. Also, the “Total Number of dead individuals” value (250 ng/kg i.p.) is 1/5. Moreover, under “250 ng/kg i.p., 1st day”, the “Number of dead individuals” value is listed as 0/5. Also, the “Number of dead individuals” value (250 ng/kg i.p., 2nd day) was 0/5. Besides, the “Number of dead individuals” value (250 ng/kg i.p., 3rd day) is reported as 1/5. Moreover, the “Number of dead individuals” value (250 ng/kg i.p., Day of test) is on record as 0/5. Moreover, the “Total Number of dead individuals” value (500 ng/kg i.p.) is 3/5. The “Number of dead individuals” value (500 ng/kg i.p., 1st day) is 0/5. Also, the “Number of dead individuals” value (500 ng/kg i.p., 2nd day) is listed as 3/5. For the setting “500 ng/kg i.p., 3rd day”, the “Number of dead individuals” value is reported as 0/2. For the same molecule, the “Number of dead individuals” value (500 ng/kg i.p., Day of test) is 0/5. In addition, the “Total Number of dead individuals” value (1,500 ng/kg i.p.) is 4/4. In addition, the “Number of dead individuals” value (1,500 ng/kg i.p., 1st day) is recorded as 0/4. In addition, under “1,500 ng/kg i.p., 2nd day”, the “Number of dead individuals” value is listed as 1/4. Moreover, the “Number of dead individuals” value (1,500 ng/kg i.p., 3rd day) is reported as 3/3. Moreover, the “Number of dead individuals” value (1,500 ng/kg i.p., Day of test) is reported as 0/4.

Take `CCCCCCCCCCCCCCCC(=O)OC[C@H]1OC(OC)[C@H](N)[C@@H](O)[C@@H]1O` (stereo partly drawn) [compound ①, 6-O-palmitoyl-D-glucosamine methylglycoside]: the “dead individuals during the observation period” value was “no dead individual was found”, the “general condition” value is “no significant change was found” and the weight entry is given as “an increase in weight was found as in the control”. Moreover, the “Total Number of dead individuals” value (450 ng/kg i.p.) is reported as 0/2. For the setting “450 ng/kg i.p., 1st day”, the “Number of dead individuals” value is given as 0/2. Besides, the “Number of dead individuals” value (450 ng/kg i.p., 2nd day) is 0/2. Further, the “Number of dead individuals” value (450 ng/kg i.p., 3rd day) is given as 0/2. The “Number of dead individuals” value (450 ng/kg i.p., Day of test) was 0/2. Further, for the setting “900 ng/kg i.p.”, the “Total Number of dead individuals” value is on record as 0/2. The “Number of dead individuals” value (900 ng/kg i.p., 1st day) is 0/2. The “Number of dead individuals” value (900 ng/kg i.p., 2nd day) is 0/2. In addition, the “Number of dead individuals” value (900 ng/kg i.p., 3rd day) was 0/2. Also, the “Number of dead individuals” value (900 ng/kg i.p., Day of test) is 0/2.

The values above are taken from patent publication EP0457910A1, “NOVEL GLUCOSAMINE DERIVATIVE AND LIPOSOME CONTAINING THE SAME AS MEMBRANE COMPONENT” (Japan Tobacco Inc., priority 1989, dated 1991).
